Reference: patent US4293557A, “Antiulcer phenoxypropylamine derivatives” (Teikoku Hormone Mfg. Co., Ltd., priority 1979, dated 1981)

Tested on: not listed separately
Assay: in vivo
Settings: mouse, oral, 5% Tween 80 suspension, male ddY mice 19-22 g, Litchfield-Wilcoxon method

Row | Structure (SMILES) | LD50 at 72 h [mg/kg]
1 | CC(c1cccc(OCCCNC=O)c1)N1CCCC1 (centres unmarked) [A, N-[3-[3-[1-(1-Pyrrolidinyl)ethyl]phenoxy]propyl]formamide] | 2500
2 | CC(=O)NCCCOc1cccc(C(C)N2CCCC2)c1 (centres unmarked) [F, N-[3-[3-[1-(1-Pyrrolidinyl)ethyl]phenoxy]propyl]acetamide] | 2100

Biological target: T1, histamine H2 receptor (Cavia porcellus, UniProt P47747)
T1 construct: histamine-induced chronotropic response, pA2
T1 sequence (P47747 whole entry): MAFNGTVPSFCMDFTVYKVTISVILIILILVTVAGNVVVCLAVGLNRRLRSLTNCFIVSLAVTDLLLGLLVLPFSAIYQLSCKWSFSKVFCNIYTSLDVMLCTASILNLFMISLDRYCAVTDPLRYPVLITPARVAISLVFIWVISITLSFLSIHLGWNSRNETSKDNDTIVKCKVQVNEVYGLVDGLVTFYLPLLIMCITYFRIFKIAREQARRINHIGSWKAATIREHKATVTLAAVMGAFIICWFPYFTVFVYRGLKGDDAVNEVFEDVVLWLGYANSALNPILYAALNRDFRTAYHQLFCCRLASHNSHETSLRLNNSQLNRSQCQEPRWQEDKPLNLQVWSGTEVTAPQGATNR
Assay: Measurement of histamine H2 receptor antagonizing activity (isolated right atrium, histamine dose-response of heart beat)
Design: species or system Hartley
Settings: isolated guinea pig right atrium; test compound 1×10^-5 M; negative logarithm of molar concentration required to double the histamine concentration; Van Rossum method
Protocol: (1) Measurement of histamine H2 receptor antagonizing activity
A guinea pig, Hartley, (male 400-550 g) was struck at the head to let out blood, and the heart was enucleated. The right atrium was separated in a Tyrod solution saturated with oxygen, and a silk thread was attached to its both ends. Using the silk threads at both ends, the atrium was suspended under a tension of 700 mg in a Magnus tube (25 ml) containing a Tyrod solution maintained at 36° C. through which mixture of 95% of O2 and 5% of CO2 was passed. The contracting motion of the atrium was recorded by a force-displacement transducer, and the number of heart beats was calculated.
Histamine (used in the form of diphosphate; the same hereinbelow) was cumulatively added to the Magnus tube in a concentration of 1×10^-8 M to 1×10^-4 M in such an amount that the logarithm of the amount provides an equal interval of 1/2, until a maximum increase in heart beat was obtained. Thus, the dose-response curve of histamine was obtained. The inside of the Magnus tube was washed several times with a Tyrod solution, and the atrium was stabilized for 1 hour. Then, the above procedure was repeated to obtain the dose-response curve of histamine again. The inside of the Magnus tube was washed several times, and the tissues were stabilized for 50 minutes. Then, a test compound (1×10^-5 M) was added to the Magnus tube, and after 20 minutes, the dose-response curve of histamine in the presence of the test compound was obtained.
The PA2 value (the negative logarithm of the molar concentration of the test compound required to double the concentration of histamine in the Magnus tube required to induce a certain reaction) was calculated from the dose-response curve of histamine obtained in the second operation and the dose-response curve of histamine in the presence of the test compound in accordance with the method of J. M. Van Rossum (Arch. int. Pharmacodyn., 143, 299, 1963).

Row | Structure (SMILES) | PA2
3 | CC(c1cccc(OCCCNC=O)c1)N1CCCC1 (centres unmarked) [A, N-[3-[3-[1-(1-Pyrrolidinyl)ethyl]phenoxy]propyl]formamide] | 6.12
4 | CCC(c1cccc(OCCCNC=O)c1)N1CCCC1 (centres unmarked) [B] | 6.49
5 | O=CNCCCOc1cccc(CN2CCCCC2)c1 [C, N-[3-[3-(1-Piperidinylmethyl)phenoxy]propyl]formamide] | 6.50
6 | CC(c1cccc(OCCCNC=O)c1)N1CCCCCC1 (centres unmarked) [D, N-[3-[3-(1-(1-Perhydroazepinyl)ethyl]phenoxy]propyl]formamide] | 6.14
7 | CC(c1cccc(OCCCNC=O)c1)N1CCC(O)C1 (centres unmarked) [E] | 5.99
8 | CC(=O)NCCCOc1cccc(C(C)N2CCCC2)c1 (centres unmarked) [F, N-[3-[3-[1-(1-Pyrrolidinyl)ethyl]phenoxy]propyl]acetamide] | 6.16
9 | CCC(c1cccc(OCCCNC(C)=O)c1)N1CCCC1 (centres unmarked) [G, N-[3-[3-[1-(1-Pyrrolidinyl)propyl]phenoxy]propyl]acetamide] | 6.47
10 | CC(=O)NCCCOc1cccc(CN2CCCCC2)c1 [H, N-[3-[3-(1-Piperidinylmethyl)phenoxy]propyl]acetamide] | 6.52
11 | CC(=O)NCCCOc1cccc(C(C)N2CCCCC2)c1 (centres unmarked) [I, N-[3-[3-[1-(1-Piperidinyl)ethyl]phenoxy]propyl]acetamide] | 5.97
12 | CCC(=O)NCCCOc1cccc(C(C)N2CCCC2)c1 (centres unmarked) [J, N-[3-[3-[1-(1-Pyrrolidinyl)ethyl]phenoxy]propyl]propionamide] | 6.04
13 | CC(c1cccc(OCCCNC(=O)CO)c1)N1CCCC1 (centres unmarked) [K, N-[3-[3-[1-(1-Pyrrolidinyl)ethyl]phenoxy]propyl]hydroxyacetamide] | 5.83
14 | O=C(CO)NCCCOc1cccc(CN2CCCCC2)c1 [L, N-[3-[3-(1-Piperidinylmethyl)phenoxy]propyl]hydroxyacetamide] | 6.79
15 | O=C(CO)NCCCOc1cccc(CN2CCCCCC2)c1 [M, N-[3-[3-(1-Perhydroazepinylmethyl)phenoxy]propyl]hydroxyacetamide] | 6.29
16 | CC(c1cccc(OCCCNC(=O)CCN)c1)N1CCCC1 (centres unmarked) [N, N-(3-Aminopropionyl)-3-[3-[1-(1-pyrrolidinyl)ethyl]phenoxy]propylamine] | 6.26
17 | COCC(=O)NCCCOc1cccc(CN2CCCCC2)c1 [O, N-[3-[3-(1-Piperidinylmethyl)phenoxy]propyl]methoxyacetamide] | 6.62
18 | CC(=O)OCC(=O)NCCCOc1cccc(C(C)N2CCCC2)c1 (centres unmarked) [P, N-[3-[3-[1-(1-Pyrrolidinyl)ethyl]phenoxy]propyl]acetoxyacetamide] | 6.11
19 | CC(=O)OCC(=O)NCCCOc1cccc(CN2CCCCC2)c1 [Q, N-[3-[3-(1-Piperidinylmethyl)phenoxy]propyl]acetoxyacetamide] | 7.10
20 | CC(=O)OCC(=O)NCCCOc1cccc(CN2CCCCCC2)c1 [R, N-[3-[3-(1-Perhydroazepinylmethyl)phenoxy]propyl]acetoxyacetamide] | 6.28
21 | CCC(=O)OCC(=O)NCCCOc1cccc(CN2CCCCC2)c1 [S, N-[3-[3-(1-Piperidinylmethyl)phenoxy]propyl]propionyloxyacetamide] | 6.77
22 | O=C(COC(=O)c1ccccc1)NCCCOc1cccc(CN2CCCCC2)c1 [T, N-[3-[3-(1-Piperidinylmethyl)phenoxy]propyl]benzoyloxyacetamide] | 6.74
23 | O=C(COC(=O)c1ccc(Cl)c(Cl)c1)NCCCOc1cccc(CN2CCCCCC2)c1 [U, N-(3,4-Dichlorobenzoyloxyacetyl)-3-[3-(1-perhydroazepinylmethyl)phenoxy]propylamine] | 6.80
